Target: T1, FXa (Homo sapiens, UniProt P00742)
T1 construct: consisting of FXa, Kallikrein 1, MMP 1
Assay: Non-TMPRSS2 protease panel: FXa
Type: biochemical
Details: 10-dose, 3-fold from 10 μM
Procedure: Biochemical activity of compound 1 (racemic mixture, batch 1), compound 3 (racemic), compound 11, and compound 2 (enantiomer 1, batch 1) in proteases indicated in Table 21, Table 22, Table 23, and Table 24, respectively, were measured by testing the compounds in a 10-dose IC50 with a 3-fold series dilution starting at 10 μM against the proteases. The protease activities were monitored as a time-course measurement of the increase in fluorescence signal from fluorescently-labeled peptide substrate, and initial linear portion of slope (signal/min) was analyzed. The curve fits were performed when the activities at the highest concentration of compounds were less than 65%.

T1 sequence (P00742 235-488 limits assumed): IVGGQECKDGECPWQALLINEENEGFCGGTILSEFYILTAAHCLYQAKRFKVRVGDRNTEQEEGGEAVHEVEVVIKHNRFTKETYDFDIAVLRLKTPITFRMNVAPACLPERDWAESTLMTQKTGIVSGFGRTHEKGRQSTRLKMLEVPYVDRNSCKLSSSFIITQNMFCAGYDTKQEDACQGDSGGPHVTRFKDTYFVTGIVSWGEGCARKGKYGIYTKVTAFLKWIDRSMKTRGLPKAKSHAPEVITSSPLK
T1 sequence (P00742 41-179 partner limits assumed): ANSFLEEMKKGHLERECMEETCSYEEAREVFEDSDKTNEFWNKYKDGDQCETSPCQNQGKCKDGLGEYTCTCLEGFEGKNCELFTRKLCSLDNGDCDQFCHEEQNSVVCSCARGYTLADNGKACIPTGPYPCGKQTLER

Compound | IC50 (FXa) | IC50 (Factor Xa)
N=C(N)c1cccc(CC(NS(=O)(=O)c2ccccc2)c2nc3ccccc3s2)c1 (racemic) [1 (racemic mixture, batch 1), 3-[2-Benzenesulfonamido-2-(1,3-benzothiazol-2-yl)ethyl]benzene-1-carboximidamide] | > 10 µM | –
N=C(N)c1cccc(CC(NS(=O)(=O)c2cccc(-c3ccc(Cl)cc3Cl)c2)c2nc3ccccc3s2)c1 (racemic) [3 (racemic), 3-[2-(1,3-Benzothiazol-2-yl)-2-{2′,4′-dichloro-[1,1′-biphenyl]-3-sulfonamido}ethyl]benzene-1-carboximidamide] | < 10 µM | –
N=C(N)c1cccc(C[C@H](NS(=O)(=O)c2ccccc2)c2nnco2)c1 (single isomer, unassigned) [Compound 2 (enantiomer 1, batch 1), 3-[2-Benzenesulfonamido-2-(1,3,4-oxadiazol-2-yl)ethyl]benzene-1-carboximidamide] | > 10 µM | –
COc1ccc2nc(C(Cc3cccc(C(=N)N)c3)NS(=O)(=O)c3ccccc3)sc2c1 (stereo not shown) [Compound 11, 3-[2-Benzenesulfonamido-2-(6-methoxy-1,3-benzothiazol-2-yl)ethyl]benzene-1-carboximidamide] | – | > 10 µM

Source: patent US20240132457A1, “3-(2-(BENZO[D]THIAZOL-2-YL)-2-(PHENYLSUFONAMIDO)ETHYL)BENZIMIDAMIDE DERIVATIVES AND RELATED COMPOUNDS AS TMPRSS2 INHIBITORS FOR THE TREATMENT OF VIRAL INFECTIONS” (INTEGERBIO, INC., priority 2020, published 2024)
